This is an account of results in patent US7709441B2, “Control of function of intracellular Ca ion” (Japan Science and Technology Agency, priority 2003, dated 2010).

Like-named read-outs stand apart in the source and are kept apart here. Where only a bound is given, the exact number is not on record here.

Data set [1] addresses T1, IP3R1 (Mus musculus, UniProt P11881). Put plainly: [3H]IP3 binding assay with purified IP3R1 in the presence or absence of CARP (Scatchard plot). The note with it: for Kd: mean of three separate experiments, read-out: dissociation constant (Kd±S.D.) of IP3 binding to IP3R1. On the procedure: The inventors conducted a binding assay using purified IP3R1, to evaluate effect of CARP on IP3-binding affinity to IP3R1. Purified IP3R1 was incubated with various concentration of [^3H] IP3 in the presence or absence of purified recombinant CARP, and analyzed by a Scatchard plot.
IP3 binding to IP3R1 by IP3 in the presence (▪ in FIG. 6) and in the absence (● in FIG. 6) of CARP. In FIG. 6, the horizontal axis represents an amount of binding IP3 (pmol/mg), and the vertical axis represents an amount of binding IP3 divided by an amount of non-binding IP3 (pmol/mg/nM).
[^3H]IP3 binding to IP3R1 was assayed by polyethylene glycol precipitation in the presence or absence of CARP in accordance with the method as reported previously (Maeda, N., Niinobe, M., et al, (1990), EMBO J.,9,61-67). 0.5 μg of purified IP3R1 was incubated with or without 10 μg of purified His-CARP in 50 μL of a solution containing 50 mM Tris-HCl, pH 8.0, 1 mM EDTA, 1 mM 2-mercaptoethanol, 9.6 nM [^3H] IP3 and different concentration of IP3, for 10 min at 4° C. Nonspecific binding was measured in the presence of 10 μM IP3.
Target sequence in this assay (P11881 whole entry): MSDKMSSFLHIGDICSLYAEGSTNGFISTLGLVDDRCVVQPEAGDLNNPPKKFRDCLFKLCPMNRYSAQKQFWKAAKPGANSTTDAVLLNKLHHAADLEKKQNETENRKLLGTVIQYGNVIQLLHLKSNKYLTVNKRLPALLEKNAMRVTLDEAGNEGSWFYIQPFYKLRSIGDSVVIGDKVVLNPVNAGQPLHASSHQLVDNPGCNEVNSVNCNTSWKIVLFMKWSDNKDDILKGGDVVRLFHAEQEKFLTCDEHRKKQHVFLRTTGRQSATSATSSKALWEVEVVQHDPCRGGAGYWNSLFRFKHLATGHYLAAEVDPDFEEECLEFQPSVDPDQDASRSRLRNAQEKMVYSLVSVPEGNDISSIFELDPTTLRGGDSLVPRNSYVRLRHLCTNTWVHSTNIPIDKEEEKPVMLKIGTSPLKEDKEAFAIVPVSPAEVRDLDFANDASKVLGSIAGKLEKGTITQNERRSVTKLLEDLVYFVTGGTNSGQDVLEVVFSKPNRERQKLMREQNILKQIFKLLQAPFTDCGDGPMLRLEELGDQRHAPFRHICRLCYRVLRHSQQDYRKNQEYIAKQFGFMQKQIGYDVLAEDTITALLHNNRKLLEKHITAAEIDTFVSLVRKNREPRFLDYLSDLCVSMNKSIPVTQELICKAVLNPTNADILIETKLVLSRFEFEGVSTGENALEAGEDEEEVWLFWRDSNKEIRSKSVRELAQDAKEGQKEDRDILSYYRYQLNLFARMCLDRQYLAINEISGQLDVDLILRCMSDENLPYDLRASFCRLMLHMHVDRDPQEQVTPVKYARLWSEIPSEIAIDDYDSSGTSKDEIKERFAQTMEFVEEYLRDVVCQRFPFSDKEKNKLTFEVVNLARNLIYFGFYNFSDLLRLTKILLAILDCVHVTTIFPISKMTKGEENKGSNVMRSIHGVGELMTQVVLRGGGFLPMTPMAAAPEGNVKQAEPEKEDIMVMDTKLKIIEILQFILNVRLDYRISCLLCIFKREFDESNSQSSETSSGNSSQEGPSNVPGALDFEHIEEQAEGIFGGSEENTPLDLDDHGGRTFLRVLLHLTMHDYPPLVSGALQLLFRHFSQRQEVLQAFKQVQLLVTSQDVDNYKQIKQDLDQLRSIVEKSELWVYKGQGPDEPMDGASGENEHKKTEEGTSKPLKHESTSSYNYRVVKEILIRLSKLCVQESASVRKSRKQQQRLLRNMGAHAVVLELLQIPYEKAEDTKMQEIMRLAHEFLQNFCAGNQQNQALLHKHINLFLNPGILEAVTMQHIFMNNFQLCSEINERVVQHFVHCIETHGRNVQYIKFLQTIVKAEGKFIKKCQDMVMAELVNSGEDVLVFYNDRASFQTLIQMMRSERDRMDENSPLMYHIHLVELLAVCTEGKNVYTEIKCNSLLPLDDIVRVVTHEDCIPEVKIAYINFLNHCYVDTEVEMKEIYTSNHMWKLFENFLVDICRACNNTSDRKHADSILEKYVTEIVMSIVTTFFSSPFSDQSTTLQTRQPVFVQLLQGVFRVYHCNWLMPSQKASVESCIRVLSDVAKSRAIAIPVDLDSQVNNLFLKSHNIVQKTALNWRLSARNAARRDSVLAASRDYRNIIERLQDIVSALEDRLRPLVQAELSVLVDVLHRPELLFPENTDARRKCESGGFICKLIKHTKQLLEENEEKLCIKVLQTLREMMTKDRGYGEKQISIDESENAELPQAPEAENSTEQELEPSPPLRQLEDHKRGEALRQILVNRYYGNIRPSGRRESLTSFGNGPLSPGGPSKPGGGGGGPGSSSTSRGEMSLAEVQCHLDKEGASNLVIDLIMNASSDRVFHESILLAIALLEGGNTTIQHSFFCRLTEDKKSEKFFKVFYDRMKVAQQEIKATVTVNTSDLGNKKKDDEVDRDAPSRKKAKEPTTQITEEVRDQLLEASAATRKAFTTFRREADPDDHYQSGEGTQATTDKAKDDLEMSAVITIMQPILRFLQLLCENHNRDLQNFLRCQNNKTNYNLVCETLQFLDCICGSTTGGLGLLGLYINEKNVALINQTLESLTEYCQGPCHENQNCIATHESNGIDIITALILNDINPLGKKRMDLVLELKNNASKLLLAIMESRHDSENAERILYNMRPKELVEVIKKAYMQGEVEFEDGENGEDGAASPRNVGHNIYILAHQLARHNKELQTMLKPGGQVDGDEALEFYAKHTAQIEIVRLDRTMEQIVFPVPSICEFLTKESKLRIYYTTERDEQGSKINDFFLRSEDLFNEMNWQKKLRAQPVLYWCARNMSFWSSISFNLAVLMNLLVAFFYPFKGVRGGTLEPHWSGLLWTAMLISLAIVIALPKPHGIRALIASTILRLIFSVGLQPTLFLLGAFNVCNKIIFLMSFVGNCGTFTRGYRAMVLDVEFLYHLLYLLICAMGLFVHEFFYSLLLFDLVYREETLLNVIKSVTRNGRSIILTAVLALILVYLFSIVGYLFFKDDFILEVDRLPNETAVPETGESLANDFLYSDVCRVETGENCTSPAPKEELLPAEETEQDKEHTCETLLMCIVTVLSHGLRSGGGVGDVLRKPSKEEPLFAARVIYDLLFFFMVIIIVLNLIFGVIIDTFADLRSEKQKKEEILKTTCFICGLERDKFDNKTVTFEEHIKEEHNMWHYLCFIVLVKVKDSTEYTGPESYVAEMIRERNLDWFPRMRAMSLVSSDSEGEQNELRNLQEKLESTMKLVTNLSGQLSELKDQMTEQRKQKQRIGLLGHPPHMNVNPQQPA

For a further data set, the system named is Purkinje cells. The note with it: intact Purkinje cells; read-out: EC50 of IP3 for IP3-induced Ca2+ release; cited from earlier work.
Data set [2] concerns IP3R1. The note with it: other tissues or isolated IP3R1; read-out: EC50 of IP3 for IP3-induced Ca2+ release; cited from earlier work.
The target in data set [3] is T2, GST-EL (amino acids 1-2217 of mIP3R1) (Mus musculus, UniProt P11881).
T2 construct: (amino acids 1-2217 of mIP3R1) and has GST in its N terminus; made in house; host or cells: Sf9 cells (recombinant baculovirus)
Put plainly: Pull-down assay with GST-EL (soluble IP3R1), immunoblot with anti-CARP antibody. The class given is binding. The settings on record: mouse cerebellar cytosolic fraction; GST as control. The source says:
(§1) Next, the inventors of the present application examined the interaction between CARP and IP3R1 by means of a pull-down method in order to obtain further evidence for the interaction by biochemical methods. The inventors first developed expression system in Sf9 cells, and made IP3R1 soluble by removing the channel domain. The soluble IP3R1, designated GST-EL, covers both the ligand binding domain and modulatory domain (amino acids 1-2217 of mIP3R1) and has GST in its N terminus. Mouse cerebellar cytosolic fraction was incubated with GST-EL or GST, and binding of CARP to the recombinant proteins was analyzed by immunoblotting with anti-CARP antibody. The results are shown in photographs of FIG. 4 which are substituted for drawings.
Adult mouse cerebella were homogenized in 10 mM HEPES (pH 7.4), 320 mM Sucrose, 2 mM EDTA, 1 mM 2-mercaptoethanol, and protease inhibitors and the homogenate was centrifuged at 1,000×g for 10 min. The supernatant was centrifuged at 100,000×g for 60 min to obtain the cytosolic fraction (the supernatant) and the crude microsome (the pellet). The cytosolic fraction was added with 100 mM NaCl, and incubated with 20 μg of GST-EL or GST for 2 hours at 4° C. […] The eluted proteins were analyzed by Western blotting with anti-CARP antibody. […]
(A western blot detects proteins with antibodies after separation by electrophoresis.)

The conditions of data set [4]: reported; cited from earlier work.
The target in data set [5] is T1, IP3R1. Nature of the data set: Pull-down assay with GST-CARP on detergent extract of mouse cerebellar microsome, immunoblot with anti-IP3R1 antibody. In kind it is binding. Also on record: The crude microsome was solubilized with 1% Triton X-100; from tissue; host or cells: adult mouse cerebellum, crude microsome solubilized with Triton X-100 (GST-CARP made in Escherichia coli). The settings on record: GST as control.
From the text: as §1
The crude microsome was solubilized with 1% Triton X-100, and dissolved in 50 mM HEPES (pH7.4), 2 mM EDTA, 1 mM 2-mercaptoethanol, and protease inhibitors for 30 min at 4° C., and centrifuged at 20,000×g for 30 min. The supernatants were processed for pull-down assay with 10 μg of GST-CARP or GST as described above, and bound proteins were subjected to immunoblot analysis with anti-IP3R1 antibody KM1112.

T2 sequence (P11881 1-2217, one chain of several): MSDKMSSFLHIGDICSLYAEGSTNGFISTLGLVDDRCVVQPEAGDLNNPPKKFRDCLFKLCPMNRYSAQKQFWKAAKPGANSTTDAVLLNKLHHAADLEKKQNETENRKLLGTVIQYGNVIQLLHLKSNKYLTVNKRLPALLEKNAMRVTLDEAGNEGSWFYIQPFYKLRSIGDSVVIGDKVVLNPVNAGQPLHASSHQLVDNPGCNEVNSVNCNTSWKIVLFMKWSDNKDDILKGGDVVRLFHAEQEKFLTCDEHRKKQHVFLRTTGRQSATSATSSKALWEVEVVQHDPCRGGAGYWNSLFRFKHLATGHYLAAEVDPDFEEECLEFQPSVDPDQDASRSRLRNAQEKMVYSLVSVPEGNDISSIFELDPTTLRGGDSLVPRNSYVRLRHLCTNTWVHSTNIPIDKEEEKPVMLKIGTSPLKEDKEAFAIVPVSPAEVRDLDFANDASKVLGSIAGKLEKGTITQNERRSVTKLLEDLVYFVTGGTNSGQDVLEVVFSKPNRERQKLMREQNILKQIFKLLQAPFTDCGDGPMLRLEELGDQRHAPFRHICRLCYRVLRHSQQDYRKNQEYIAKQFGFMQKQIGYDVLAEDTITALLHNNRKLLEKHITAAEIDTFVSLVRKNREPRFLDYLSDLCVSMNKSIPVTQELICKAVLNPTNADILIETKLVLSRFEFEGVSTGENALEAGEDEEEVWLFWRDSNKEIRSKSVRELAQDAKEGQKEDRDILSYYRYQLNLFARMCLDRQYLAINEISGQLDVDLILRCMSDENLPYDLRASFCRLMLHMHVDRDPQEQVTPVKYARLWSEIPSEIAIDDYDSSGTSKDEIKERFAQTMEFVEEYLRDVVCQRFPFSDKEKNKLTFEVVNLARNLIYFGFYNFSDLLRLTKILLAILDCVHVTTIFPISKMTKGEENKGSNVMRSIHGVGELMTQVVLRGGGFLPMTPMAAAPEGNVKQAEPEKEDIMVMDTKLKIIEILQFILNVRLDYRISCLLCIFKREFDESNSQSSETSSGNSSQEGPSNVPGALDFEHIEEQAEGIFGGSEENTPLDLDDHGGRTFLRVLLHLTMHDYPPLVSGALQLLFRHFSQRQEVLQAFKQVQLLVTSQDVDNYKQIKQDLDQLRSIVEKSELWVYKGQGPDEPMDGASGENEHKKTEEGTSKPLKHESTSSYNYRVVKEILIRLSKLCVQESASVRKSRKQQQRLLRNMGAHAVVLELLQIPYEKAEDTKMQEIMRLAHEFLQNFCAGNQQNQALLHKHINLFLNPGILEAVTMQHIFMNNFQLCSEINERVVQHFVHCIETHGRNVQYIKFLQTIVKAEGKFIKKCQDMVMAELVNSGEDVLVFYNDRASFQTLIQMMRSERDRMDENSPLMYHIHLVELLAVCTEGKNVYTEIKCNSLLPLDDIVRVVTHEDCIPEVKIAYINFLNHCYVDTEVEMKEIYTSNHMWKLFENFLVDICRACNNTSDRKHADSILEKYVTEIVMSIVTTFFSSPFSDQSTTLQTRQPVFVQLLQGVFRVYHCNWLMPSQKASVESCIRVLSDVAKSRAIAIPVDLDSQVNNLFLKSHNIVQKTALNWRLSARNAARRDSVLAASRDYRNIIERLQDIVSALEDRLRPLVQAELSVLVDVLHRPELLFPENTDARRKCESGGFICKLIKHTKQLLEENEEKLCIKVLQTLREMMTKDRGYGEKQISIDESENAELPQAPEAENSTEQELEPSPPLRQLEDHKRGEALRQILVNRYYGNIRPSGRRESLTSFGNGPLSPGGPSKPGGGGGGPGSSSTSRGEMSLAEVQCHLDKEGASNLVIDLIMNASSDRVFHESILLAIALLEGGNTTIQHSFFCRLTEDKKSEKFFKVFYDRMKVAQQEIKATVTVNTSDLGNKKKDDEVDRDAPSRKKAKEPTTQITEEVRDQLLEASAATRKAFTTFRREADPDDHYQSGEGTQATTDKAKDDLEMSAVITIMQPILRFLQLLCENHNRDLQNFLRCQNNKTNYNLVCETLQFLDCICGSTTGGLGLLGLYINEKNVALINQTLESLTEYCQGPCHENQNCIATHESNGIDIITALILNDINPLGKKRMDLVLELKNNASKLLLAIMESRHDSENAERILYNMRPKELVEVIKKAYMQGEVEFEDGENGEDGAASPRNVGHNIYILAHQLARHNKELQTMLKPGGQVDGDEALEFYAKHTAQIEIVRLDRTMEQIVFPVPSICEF

As usually defined, the Kd is a measure of binding affinity in units of concentration. In general, EC50 refers to the concentration that produces a half-maximal response. For `O=P(O)(O)OC1C(O)C(O)C(OP(=O)(O)O)C(OP(=O)(O)O)C1O` (stereo not shown) [IP3, inositol-1,4,5-triphosphate], the “Bmax value of IP3 binding to IP3R1” value on IP3R1 [1] (in the absence of CARP) turned out to be 1720 ± 234 pmol/mg; on IP3R1 [1] (in the presence of CARP), 1630 ± 108 pmol/mg. Further, the Kd at IP3R1 [1] (in the absence of CARP) is 18.2 ± 4.58 nM; on IP3R1 [1] (in the presence of CARP), 33.5 ± 2.07 nM. Besides, the EC50 with Purkinje cells is not below 10000 nM; with IP3R1 [2], 100 to 1000 nM.

B1: CARP: mouse carbonic anhydrase-related protein, 291 amino acids, SEQ ID NO:2 (protein, listed as Mus musculus)
chain: MADLSFIEDAVAFPEKEEDEEEEEEEGVEWGYEEGVEWGLVFPDANGEYQSPINLNSREARYDPSLLDVRLSPNYVVCRDCEVTNDGHTIQVILKSKSVLSGGPLPGGQEFELYEVRFHWGRENQRGSEHTVNFKAFPMELHLIHWNSTLFGSIDEAVGKPHGIAIIALFVQIGKEHVGLKAVTEILQDIQYKGKSKTIPCFNPNTLLPDPLLRDYWVYEGSLTIPPCSEGVTWILFRYPLTISQMQIEEFRRLRTHVKGVELVEGCDGILGDNFRPTQPLSDRVIRAAFQ
As for B1, the “effect of CARP on binding of IP3 to IP3R1” value with IP3R1 [1] (10 μg purified His-CARP, 0.5 μg purified IP3R1) is recorded as “inhibits binding of IP3 to IP3R1 not by antagonistic action but by reducing the affinity”. Besides, the “binding of CARP to GST-EL in pull-down” value in data set [3] is recorded as “specifically binds to GST-EL, but not to GST alone”. The carbonic anhydrase activity entry in data set [4] is “no carbonic anhydrase activity”.

B2: GST-CARP: GST-fusion recombinant full-length CARP expressed in Escherichia coli (protein)
chain: MADLSFIEDAVAFPEKEEDEEEEEEEGVEWGYEEGVEWGLVFPDANGEYQSPINLNSREARYDPSLLDVRLSPNYVVCRDCEVTNDGHTIQVILKSKSVLSGGPLPGGQEFELYEVRFHWGRENQRGSEHTVNFKAFPMELHLIHWNSTLFGSIDEAVGKPHGIAIIALFVQIGKEHVGLKAVTEILQDIQYKGKSKTIPCFNPNTLLPDPLLRDYWVYEGSLTIPPCSEGVTWILFRYPLTISQMQIEEFRRLRTHVKGVELVEGCDGILGDNFRPTQPLSDRVIRAAFQ
modifications: left off: a dimerising Fc or GST
notes: GST-fusion recombinant full-length CARP expressed in Escherichia coli
As for B2, in the data set with IP3R1 [5], the “binding of IP3R1 to GST-CARP in pull-down” value was “IP3R1 interacted with GST-CARP but not with GST”.
